In the NIST ThermoML archive (doi:10.1016/j.fluid.2014.12.029):
Numbers after ± are expanded uncertainties.

Columns and labels:
[1] = Boiling temperature at pressure P; conditions: Liquid, Ebulliometric method (Recirculating still)
[2] = refractive index (Na D-line) (dimensionless); conditions: 298.15 K; 101.33 kPa; Liquid; Standard Abbe refractometry
[3] = Liquid; for mass density: 298.15 K, 101.33 kPa, Pycnometric method; for Normal boiling temperature: Ebulliometric method (Recirculating still)

Structure (SMILES) | Boiling temperature at pressure P ([1]; 8.01 kPa) | Boiling temperature at pressure P ([1]; 20 kPa) | Boiling temperature at pressure P ([1]; 30 kPa) | Boiling temperature at pressure P ([1]; 34.84 kPa) | Boiling temperature at pressure P ([1]; 39.85 kPa) | Boiling temperature at pressure P ([1]; 50 kPa) | Boiling temperature at pressure P ([1]; 55.02 kPa) | refractive index [2] | mass density [3] | Normal boiling temperature [3]
CCCCOCOC [1-(methoxymethoxy)-butane] | 49.24 ± 0.21 °C | 70.88 ± 0.2 °C | 81.73 ± 0.2 °C | 85.81 ± 0.2 °C | 89.66 ± 0.2 °C | 96.50 ± 0.2 °C | 99.39 ± 0.2 °C | 1.387 ± 0.0007 | 837.1 ± 0.8 kg/m3 | 119.44 ± 0.2 °C
CCCCO [butan-1-ol] |  |  |  |  |  |  |  | 1.3967 ± 0.0007 | 805.2 ± 0.7 kg/m3 | 
CCCO [propan-1-ol] |  |  |  |  |  |  |  | 1.3833 ± 0.0007 | 799.3 ± 0.7 kg/m3 | 97.16 ± 0.2 °C
